Columns and labels:
Format in all cases: functional, organism-based, Hepacivirus hominis
Hepatitis C virus [1] = assay: Antiviral activity against HCV genotype 1a harboring NS5A L31V mutant assessed as replicon RNA level measured after 3 days by real-time PCR method; details: subtype 1a, 72 h
Hepatitis C virus [2] = assay: Antiviral activity against HCV genotype 3a assessed as replicon RNA level measured after 3 days by real-time PCR method; details: 72 h
Hepatitis C virus [3] = assay: Antiviral activity against HCV genotype 1a assessed as replicon RNA level measured after 3 days by real-time PCR method; details: subtype 1a, 72 h
Hepatitis C virus [4] = assay: Antiviral activity against HCV genotype 1a harboring NS5A Y93H mutant assessed as replicon RNA level measured after 3 days by real-time PCR method; details: subtype 1a, 72 h
Hepatitis C virus [5] = assay: Antiviral activity against HCV genotype 4a assessed as replicon RNA level measured after 3 days by real-time PCR method; details: 72 h
Hepatitis C virus [6] = assay: Antiviral activity against HCV genotype 2b assessed as replicon RNA level measured after 3 days by real-time PCR method; details: 72 h
Hepatitis C virus [7] = assay: Antiviral activity against HCV genotype 1b assessed as replicon RNA level measured after 3 days by real-time PCR method; details: 72 h
Hepatitis C virus [8] = assay: Antiviral activity against HCV genotype 2a assessed as replicon RNA level measured after 3 days by real-time PCR method; details: 72 h

SMILES	EC50 (Hepatitis C virus [1])	EC50 (Hepatitis C virus [2])	EC50 (Hepatitis C virus [3])	EC50 (Hepatitis C virus [4])	EC50 (Hepatitis C virus [5])	EC50 (Hepatitis C virus [6])	EC50 (Hepatitis C virus [7])	EC50 (Hepatitis C virus [8])
COC(=O)N[C@H](C(=O)N1CCC[C@H]1c1ncc(-c2ccc3c(c2)OC(c2ccccc2)n2c-3cc3cc(-c4cnc([C@@H]5CCCN5C(=O)[C@@H](NC(=O)OC)C(C)C)[nH]4)ccc32)[nH]1)C(C)C (stereo partly specified)	500 pM	20 pM	4 pM	2000 pM	3 pM	3000 pM	3 pM	3 pM
COC(=O)N[C@H](C(=O)N1CCC[C@H]1c1ncc(-c2ccc3c(c2)OC(c2cccc(-c4ccccc4)c2)n2c-3cc3cc(-c4cnc([C@@H]5CCCN5C(=O)[C@@H](NC(=O)OC)C(C)C)[nH]4)ccc32)[nH]1)C(C)C (stereo partly specified)	300 pM	70 pM	3 pM	8000 pM	5 pM	1000 pM	4 pM	3 pM
COC(=O)N[C@H](C(=O)N1CCC[C@H]1c1ncc(-c2ccc3c(c2)OC(c2cccc(C4CC4)c2)n2c-3cc3cc(-c4cnc([C@@H]5CCCN5C(=O)[C@@H](NC(=O)OC)C(C)C)[nH]4)ccc32)[nH]1)C(C)C (mixture of isomers)	600 pM	300 pM	4 pM	12000 pM	2 pM	7000 pM	2 pM	10 pM
CNC(=O)c1cccc(C2Oc3cc(-c4cnc([C@@H]5CCCN5C(=O)[C@@H](NC(=O)OC)C(C)C)[nH]4)ccc3-c3cc4cc(-c5cnc([C@@H]6CCCN6C(=O)[C@@H](NC(=O)OC)C(C)C)[nH]5)ccc4n32)c1 (mixture of isomers)	< 10000 pM	900 pM	60 pM	145000 pM	180 pM	24000 pM	10 pM	90 pM
COC(=O)N[C@H](C(=O)N1CCC[C@H]1c1ncc(-c2ccc3c(c2)OC(c2cccc(-c4noc(C)n4)c2)n2c-3cc3cc(-c4cnc([C@@H]5CCCN5C(=O)[C@@H](NC(=O)OC)C(C)C)[nH]4)ccc32)[nH]1)C(C)C (mixture of isomers)	200 pM	70 pM	3 pM	900 pM	10 pM	2000 pM	4 pM	2 pM
COC(=O)N[C@H](C(=O)N1CCC[C@H]1c1ncc(-c2ccc3c(c2)OC(c2cccc(N4CCOCC4)c2)n2c-3cc3cc(-c4cnc([C@@H]5CCCN5C(=O)[C@@H](NC(=O)OC)C(C)C)[nH]4)ccc32)[nH]1)C(C)C (mixture of isomers)	300 pM	120 pM	4 pM	52000 pM	7 pM	17000 pM	6 pM	2 pM
CCc1cccc(C2Oc3cc(-c4cnc([C@@H]5CCCN5C(=O)[C@@H](NC(=O)OC)C(C)C)[nH]4)ccc3-c3cc4cc(-c5cnc([C@@H]6CCCN6C(=O)[C@@H](NC(=O)OC)C(C)C)[nH]5)ccc4n32)c1 (mixture of isomers)	510 pM	200 pM	2 pM	10000 pM	1 pM	3000 pM	2 pM	20 pM
COC(=O)N[C@H](C(=O)N1CCC[C@H]1c1ncc(-c2ccc3c(c2)OC(c2cccc(C(=O)N(C)C)c2)n2c-3cc3cc(-c4cnc([C@@H]5CCCN5C(=O)[C@@H](NC(=O)OC)C(C)C)[nH]4)ccc32)[nH]1)C(C)C (mixture of isomers)	400 pM	> 1000 pM	20 pM	> 100000 pM	180 pM	41000 pM	10 pM	40 pM
COC(=O)N[C@H](C(=O)N1CCC[C@H]1c1ncc(-c2ccc3c(c2)OC(c2cccc(-c4ccc(-c5ccccc5)cc4)c2)n2c-3cc3cc(-c4cnc([C@@H]5CCCN5C(=O)[C@@H](NC(=O)OC)C(C)C)[nH]4)ccc32)[nH]1)C(C)C (mixture of isomers)	300 pM	10 pM	6 pM	2000 pM	5 pM	3000 pM	3 pM	3 pM
COC(=O)N[C@H](C(=O)N1CCC[C@H]1c1ncc(-c2ccc3c(c2)OC(c2cccc(-c4ncon4)c2)n2c-3cc3cc(-c4cnc([C@@H]5CCCN5C(=O)[C@@H](NC(=O)OC)C(C)C)[nH]4)ccc32)[nH]1)C(C)C (mixture of isomers)	200 pM	400 pM	9 pM	6000 pM	20 pM	4000 pM	6 pM	7 pM
COC(=O)N[C@H](C(=O)N1CCC[C@H]1c1ncc(-c2ccc3c(c2)OC(c2ccc(-c4cccc(-c5ccccc5)c4)cc2)n2c-3cc3cc(-c4cnc([C@@H]5CCCN5C(=O)[C@@H](NC(=O)OC)C(C)C)[nH]4)ccc32)[nH]1)C(C)C (mixture of isomers)	< 2000 pM	200 pM	< 20 pM	2000 pM	< 20 pM	< 2000 pM	3 pM	< 20 pM
COC(=O)N[C@H](C(=O)N1CCC[C@H]1c1ncc(-c2ccc3c(c2)OC(c2ccc(-c4ccncc4)cc2)n2c-3cc3cc(-c4cnc([C@@H]5CCCN5C(=O)[C@@H](NC(=O)OC)C(C)C)[nH]4)ccc32)[nH]1)C(C)C (mixture of isomers)	300 pM	100 pM	3 pM	19000 pM	20 pM	< 2000 pM	4 pM	< 200 pM
COC(=O)N[C@H](C(=O)N1CCC[C@H]1c1ncc(-c2ccc3c(c2)OC(c2ccc(-c4ccccc4)cc2)n2c-3cc3cc(-c4cnc([C@@H]5CCCN5C(=O)[C@@H](NC(=O)OC)C(C)C)[nH]4)ccc32)[nH]1)C(C)C (mixture of isomers)	< 2000 pM	< 200 pM	< 20 pM	< 2000 pM	< 20 pM	< 2000 pM	< 20 pM	< 200 pM
COC(=O)N[C@H](C(=O)N1CCC[C@H]1c1ncc(-c2ccc3c(c2)OC(c2ccc(-c4ccc(-c5ccccc5)cc4)cc2)n2c-3cc3cc(-c4cnc([C@@H]5CCCN5C(=O)[C@@H](NC(=O)OC)C(C)C)[nH]4)ccc32)[nH]1)C(C)C (mixture of isomers)	60 pM	100 pM	1 pM	< 2000 pM	1 pM	60 pM	2 pM	3 pM
COC(=O)N[C@H](C(=O)N1CCC[C@H]1c1ncc(-c2ccc3c(c2)OC(c2ccc(C4CC4)cc2)n2c-3cc3cc(-c4cnc([C@@H]5CCCN5C(=O)[C@@H](NC(=O)OC)C(C)C)[nH]4)ccc32)[nH]1)C(C)C (mixture of isomers)	40 pM	30 pM	3 pM	500 pM	< 200 pM	500 pM	< 20 pM	< 200 pM
COC(=O)N[C@H](C(=O)N1CCC[C@H]1c1ncc(-c2ccc3c(c2)OC(c2cccc(-c4ccc(N)nc4)c2)n2c-3cc3cc(-c4cnc([C@@H]5CCCN5C(=O)[C@@H](NC(=O)OC)C(C)C)[nH]4)ccc32)[nH]1)C(C)C (mixture of isomers)	200 pM	200 pM	4 pM	10000 pM	2 pM	2000 pM	6 pM	5 pM
COC(=O)N[C@H](C(=O)N1CCC[C@H]1c1ncc(-c2ccc3c(c2)OC(c2cccc(-c4cccnc4)c2)n2c-3cc3cc(-c4cnc([C@@H]5CCCN5C(=O)[C@@H](NC(=O)OC)C(C)C)[nH]4)ccc32)[nH]1)C(C)C (mixture of isomers)	200 pM	80 pM	6 pM	26000 pM	3 pM	8000 pM	8 pM	4 pM

— ChEMBL document CHEMBL3822455, “Aryl or heteroaryl substituted aminal derivatives of HCV NS5A inhibitor MK-8742” (Bioorg Med Chem Lett, 2016)
